Assay results: article PMC8214093, “Structural basis of KdpD histidine kinase binding to the second messenger c-di-AMP” (The Journal of Biological Chemistry, 2021)

Target: USPSa-WT (Staphylococcus aureus, UniProt A0A7U7EVR3)
Test: biochemical
Type: binding
Settings: for Kd: Dissociation Constant (KD) ± Standard Deviation; for Kd / Dissociation Constant (KD) ± Standard Deviation: His6-USPSa WT, MST, changes in initial fluorescence; for Dissociation Constant (KD) ± Standard Deviation: columns without unit
Procedure: For labeling, the proteins were diluted to a concentration of 800 nM in binding buffer (50 mM potassium phosphate, pH 8.0, 800 mM NaCl, and 0.05% Tween 20), mixed with an equal volume of RED-Tris-NTA dye (80 nM), and incubated on ice in the dark for 30 min. […] The labeled proteins and the ligand dilutions were then mixed in a 1:1 ratio and incubated on ice in the dark for 30 min.
The samples were then loaded into Monolith standard-treated capillaries in triplicate, and the changes in fluorescence were measured with 40% LED power and 20% IR-laser power for an on-time of 20-s at 23 °C. To determine the binding affinity, the ligand-dependent changes in the intensity of the initial fluorescence, or the thermophoretic mobility, were analyzed according to the law of mass action in a standard fitting mode of MO.Affinity analysis software (version 2.3). To exclude the possibility of nonspecific binding of the ligand to the His6-tag (on USPSa) or ligand-induced USP adsorption to labware or due to aggregation, we performed His6-peptide and EDTA tests, respectively ([91]). […] In the EDTA test, the binding buffer additionally contained 50 mM EDTA to disrupt the interaction between His6-USP and the RED-Tris-NTA dye.

Sequence of USPSa-WT (A0A7U7EVR3 entry or part of it): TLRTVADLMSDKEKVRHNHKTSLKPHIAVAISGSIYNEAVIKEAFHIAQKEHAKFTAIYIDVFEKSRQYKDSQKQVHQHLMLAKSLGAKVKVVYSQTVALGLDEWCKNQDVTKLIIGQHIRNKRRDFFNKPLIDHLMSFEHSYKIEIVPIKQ

SMILES | binding affinity, fold lower than that of c-di-AMP [fold] | Kd [mM] | Dissociation Constant (KD) ± Standard Deviation
Nc1ncnc2c1ncn2[C@@H]1O[C@H](COP(=O)(O)OP(=O)(O)OP(=O)(O)O)[C@@H](O)[C@H]1O [ATP, adenosine triphosphate] | > 5000 | 5.15 ± 0.07 | 
Nc1ncnc2c1ncn2[C@@H]1O[C@@H]2COP(=O)(O)O[C@H]2[C@H]1O [c-AMP, cyclic AMP] |  | 10 ± 0.71 | 
Nc1nc2c(ncn2[C@@H]2O[C@@H]3COP(=O)(O)O[C@H]4[C@@H](O)[C@H](n5cnc6c(=O)[nH]c(N)nc65)O[C@@H]4COP(=O)(O)O[C@H]3[C@H]2O)c(=O)[nH]1 [c-di-GMP] |  |  | No Binding Observed
Nc1ncnc2c1ncn2[C@@H]1O[C@@H]2COP(=O)(O)O[C@H]3[C@@H](O)[C@H](n4cnc5c(N)ncnc54)O[C@@H]3COP(=O)(O)O[C@H]3[C@@H](O)[C@H](n4cnc5c(N)ncnc54)O[C@@H]3COP(=O)(O)O[C@H]2[C@H]1O [c-tri-AMP] |  |  | No Binding Observed
